Data taken from US20200199102A1, “COMPOUNDS THAT PARTICIPATE IN COOPERATIVE BINDING AND USES THEREOF” (Revolution Medicines, Inc., priority 2017, published 2020).
Values joined by “and” are separate entries in the source; they are usually repeats but may differ in a detail not shown here. Identical values can stand only once. Like-named read-outs stand apart in the source and are kept apart here.

Legend:
FKBP12 [1] = molecular target: T1, FKBP12 (Homo sapiens, UniProt P62942); test: AlphaLISA inhibition of binding of biotinylated FK506 to FLAG tagged FKBP12; parameters: made in house; details: read-out: Binding affinity to FKBP12 (by displacement of FK506)
T1 sequence (P62942 whole entry, species assumed): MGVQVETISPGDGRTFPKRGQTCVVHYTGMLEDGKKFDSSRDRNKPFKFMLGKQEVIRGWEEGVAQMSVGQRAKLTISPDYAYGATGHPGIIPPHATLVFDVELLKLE
Excerpt: The binding of compounds of the invention to FKBP12 can be determined using the following protocol.
This protocol utilizes Perkin Elmers AlphaLISA technology platform to detect FKBP binders by measuring the inhibition of binding of biotinylated FK506 to FLAG tagged FKBP12.
10×TBST Buffer (Boston BioProducts IBB-181), Biotinylated FK506 (in-house), FLAG tagged FKBP (in-house); anti-FLAG Donor beads (PerkinElmer AS103) and Streptavidin Acceptor beads (PerkinElmer AL125); Compounds in DMSO (in-house), FK506.
Add 20 uL of 12.5 nM FKBP-FLAG working stock to each well of the 96-well plate. Add 1 uL of test compound (100% DMSO) to each well of the plate using the Janus MTD head and P20 tips (except control wells). Add 1 uL of DMSO to negative control wells and 1 uL of 50 uM FK506 solution to positive control wells. In the dark, add 20 uL of combined Donor/Acceptor beads to each well. Incubate in the dark for 30 minutes at room temperature. In the dark, add 10 uL of 5 nM biotinylated FK506 working stock to each well. Incubate in the dark for 60 minutes at room temperature. Protect plate from light until reading on Biotek Synergy2 Plate Reader; Alphalisa 96-well protocol (680 excitation/615 emission).

HeLa-FKBP12 cells = test: Biosensor cell permeability assay (FKBP destabilizing mutant), HeLa-FKBP12 cells; assay type: cell-based; details: 72 hrs
Method: Cell permeability of compounds can be determined using the following protocol.
This protocol utilizes a modified FKBP or cyclophilin destabilizing mutant to determine the bioactivity of FKBP binding compounds or cyclophilin binding compounds in whole cell assay.
DMEM, DMEM without Phenol Red, 10% FBS, 1× Sodium Pyruvate, 1× Glutamax. Add 125 μl of media with compound per well.
Plate HeLa-FKBP12 cells (for FKBP binding compounds) or HeLa-CyclophilinA cells (for cyclophilin binding compounds) and seed overnight at 5 k/well (approximately ˜18 hrs.). Using a multi-channel pipet, take out the old media and add ˜125 ul of new media with compounds. Compounds are diluted using DMEM without Phenol Red, 10% FBS, 1× Sodium Pyruvate, 1× Glutamax. Add 125 μL of media with compound per well. Cells are treated with compounds at concentration: 30, 10, 3.33, 1.11, 0.37, 0.12, 0.04 and 0.013 uM. Time points are taken at 72 hrs and plate read using plate reader with excitation/emission: 575/620.
Cell binding/permeability is calculated in fold-change (Total RFU of treated samples/total RFU of DMSO treated samples or total RFU above background (Total RFU minus total RFU of DMSO treated samples).

FKBP12 [2] = molecular target: T1, FKBP12; test: SPR binding of compound (analyte) to immobilized FKBP12
Method: This protocol utilizes Surface Plasmon Resonance (SPR) as a method to determine kinetics (KD, Ka, Kd) for the binding of compound (analyte) to immobilized FKBP12 (ligand).
Compound in 100% DMSO (in-house), 10×HBS-P+ buffer (GE Healthcare BR-1006-71), Assay buffer (1×HBS-P+ buffer, 1% DMSO), 12×HIS tagged FKBP12 (in-house).
Experiments are performed at 25° C. Stock solution of 12×HIS tagged FKBP12 is diluted to 100 nM in assay buffer (1% DMSO final). Approximately 500-600 RU of FKBP12 is immobilized on one of two flow cells of an activated NTA chip. The second flow cell is not activated as a reference for non-specific interaction of the analyte to the sensor chip. Various concentrations of compound (1 nM-1 μM range), serially diluted into the same assay buffer (1% DMSO final), are injected onto the FKBP12 surface and reference surface at a flow rate of 10 μl/min. The surface is regenerated between analyte injections with 350 mM EDTA.
Experiments are performed at 25° C. Stock solution of 12×HIS tagged FKBP12 is diluted to 100 nM in assay buffer (1% DMSO final). Approximately 500-600 RU of FKBP12 is immobilized on one of two flow cells of an activated NTA chip. The second flow cell is not activated as a reference for non-specific interaction of the analyte to the sensor chip.

CEP250 [3] = molecular target: T2, CEP250 (Homo sapiens, UniProt P62942+Q9BV73); test: Crystal structure analysis of FKBP12-compound-CEP250 ternary complexes
T2 construct: CEP25011.4 (residues 2134-2231) (in-house); made in house
T2 sequence (Q9BV73 2134-2231): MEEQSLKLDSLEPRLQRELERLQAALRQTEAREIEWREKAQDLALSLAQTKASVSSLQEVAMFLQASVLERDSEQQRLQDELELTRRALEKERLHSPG
T2 sequence (P62942 whole entry, the tested form may be a part): as the sequence (P62942 whole entry, species assumed) above
Method: This protocol describes the crystallization and structure determination method for structures of FKBP12-Compound 2-CEP250 and FKBP12-F11-CEP250 ternary complexes.
A 3:1 molar excess of FKBP12-F2 or FKBP12-F11 binary complex is added to CEP25011.4 and incubated at 4° C. overnight to complete ternary complex formation. Pure ternary complex is isolated by gel filtration purification on a Superdex 200 column in 12.5 mM HEPES pH 7.4, 75 mM NaCl. Purified complex (at 10-20 mg/ml) is subjected to crystallization at 22° C. using sitting drop vapor diffusion. FKBP12-F2-CEP250 crystals grow in a well solution containing 0.2 M sodium malonate, 0.1 M HEPES 7.0, 21% PEG 3350. FKBP12-F11-CEP250 crystals grow in a well solution containing 0.1 M Tris pH 8.5, 0.2 M trimethylamine N-oxide, 22-24% PEG2000 MME. For data collection crystals are transferred to a solution containing mother liquor supplemented with 20-25% glycerol, and then frozen in liquid nitrogen. Diffraction datasets are collected at the Advanced Photon Source (APS) and processed with the HKL program. Molecular replacement solutions are obtained using the program PHASER in the CCP4 suite, using the published structure of FKBP12 (PDB-ID 1FKD) as a search model. Subsequent model building and refinement are performed according to standard protocols with the software packages CCP4 and COOT.

CEP250 [4] = molecular target: T3, CEP250 (Homo sapiens, UniProt Q9BV73); test: ITC binding of FKBP12-compound binary complexes to CEP250; details: FKBP12 10 μM + ligand 20 μM in cell, 298 K; for Kd: calculated from Ka = 1/Kd
T3 construct: CEP25011.4 (residues 2134-2231) (in-house); made in house

CEP250 [5] = molecular target: T3, CEP250; test: SPR binding of CEP250 (analyte) to immobilized FKBP12-F2 binary complex; details: 1 μM F2
Method: This protocol utilizes Surface Plasmon Resonance (SPR) as a method to determine kinetics (KD, Ka, Kd) for the binding of CEP250 (analyte) to immobilized FKBP12-F2 binary complex (ligand).
Experiments are performed at 25° C. […] Approximately 200-400 RU of FKBP12 is immobilized on one of two flow cells of an activated NTA chip. The second flow cell is not activated as a reference for non-specific interaction of the analyte to the sensor chip. […] The surface is regenerated between analyte injections with 350 mM EDTA.
The BiaEvaluation software program is used for data fitting. All data is reference subtracted against both the reference flow cell and a buffer injection. For kinetic analyses, data is locally fit to a 1:1 interaction model.

[6] = read-out: SPR affinity to FKBP12: KD, 25° C., Table 7
[7] = FKBP12-compound-CEP250 crystal structure

COC1C(O)CCC(CC(C)C2CCCC=CCC(C)=CCC3OC(O)(C(=O)C(=O)N4CCCCC4C(=O)O2)C(C)CC3C)C1O (centres unmarked) [Compound F9]
IC50 (FKBP12 [1]): 0.3 nM
IC50 (HeLa-FKBP12 cells): < 1000 nM
Kd (FKBP12 [2]; [6]): 0.23 nM

CC1=CC2=CC(O)C(C=C2)OC(=O)C2CCCCN2C(=O)C(=O)C2(O)OC(CCC2C)C(C)C(O)C=CC(C)CCC(O)C(C)=CC(C)C1 (centres unmarked) [Compound F12]
IC50 (FKBP12 [1]): 36.3 nM
IC50 (HeLa-FKBP12 cells): > 1000 nM
Kd (FKBP12 [2]; [6]): 21.2 nM

CC1=CCC(O)CC(C(C)=CC(C)=CC2C=CC(O)C(O)C2)OC(=O)C2CCCCN2C(=O)CC2(O)OC(C(C)CC=CCC(O)C=C1)C(C)CC2C (centres unmarked) [Compound F6]
IC50 (FKBP12 [1]): 60 nM
IC50 (HeLa-FKBP12 cells): < 1000 nM
Kd (FKBP12 [2]; [6]): 141 nM

CC(=CC1C=CC(O)C(O)C1)C=C(C)C1CC(O)CC1C(C)(O)C=CC(O)CC=CCC(C)C1OC(O)(CC(=O)N2CCCCC2C(=O)O)C(C)CC1C (centres unmarked) [Compound F23]
IC50 (FKBP12 [1]): 4690 nM
IC50 (HeLa-FKBP12 cells): > 1000 nM

CC[C@H](Cc1ccccc1)[C@@H]1CCCCCC[C@@H](C)[C@H](O)[C@@H](C)[C@@H]2CC[C@@H](C)C(=O)C(O)(O2)C(=O)N2CCCC[C@H]2C(=O)O1 [Compound F11, (2S)-1-((4R,7S)-7-((2R,3S,4R,11S,12R)-12-benzyl-3,11-dihydroxy-4-methyltetradecan-2-yl)-2-hydroxy-4-methyl-3-oxooxepane-2-carbonyl)piperidine-2-carboxylic acid C-11 Lactone]
IC50 (FKBP12 [1]): 0.51 nM
Kd (FKBP12 [2]; KD, Example 10, 25° C., 1:1 interaction model): 15.6 nM
Kd (FKBP12 [2]; SPR affinity to FKBP12: KD, 25° C., Table 7): 21.5 nM
buried surface area of CEP250 contributed by FKBP12 (CEP250 [3]; [7]): 590 Å^2
total buried surface area of CEP250 (CEP250 [3]; [7]): 831 Å^2
total buried surface area of the ternary complex (CEP250 [3]; [7]): 1648 Å^2
ΔG (CEP250 [4]; CEP25011.4 68 μM in syringe): −40.36 kJ*mol −mol−1
ΔH (CEP250 [4]; CEP25011.4 68 μM in syringe): −47.78 kJ*mol −mol−1
−T*ΔS (CEP250 [4]; CEP25011.4 68 μM in syringe): 7.41 kJ*mol −mol−1
Kd (CEP250 [4]; CEP25011.4 68 μM in syringe): 80 nM
ΔG (CEP250 [4]; CEP25029.4 118 μM in syringe): −36.74 kJ*mol −mol−1
ΔH (CEP250 [4]; CEP25029.4 118 μM in syringe): −58.48 kJ*mol −mol−1
−T*ΔS (CEP250 [4]; CEP25029.4 118 μM in syringe): 21.73 kJ*mol −mol−1
Kd (CEP250 [4]; CEP25029.4 118 μM in syringe): 360 nM

CCC1C=C(C)C(O)CCC(C)C=CC(O)C(C)C2CCC(C)C(O)(O2)C(=O)C(=O)N2CCCCC2C(=O)OC2C=CC(=CC2O)C=C(C)C1 (centres unmarked) [Compound F10]
IC50 (FKBP12 [1]): 21.1 nM
IC50 (HeLa-FKBP12 cells): > 1000 nM
Kd (FKBP12 [2]; [6]): 17.2 nM

CC[C@H](Cc1ccccc1)[C@@H]1/C=C/C/C=C/C[C@@H](C)[C@H](O)[C@@H](C)[C@@H]2CC[C@@H](C)C(=O)C(O)(O2)C(=O)N2CCCC[C@H]2C(=O)O1 [Compound F2, (2S)-1-((4R,7S)-7-((2R,3S,4R,6E,9E,11R,12R)-12-benzyl-3,11-dihydroxy-4-methyltetradeca-6,9-dien-2-yl)-2-hydroxy-4-methyl-3-oxooxepane-2-carbonyl)piperidine-2-carboxylic acid C-11 lactone]
IC50 (FKBP12 [1]): 1.5 nM
IC50 (HeLa-FKBP12 cells): < 1000 nM
Ka (FKBP12 [2]; Example 10, 25° C., 1:1 interaction model): 45000 M⁻¹ s⁻¹
Kd (FKBP12 [2]; [6]): 12.6 nM
buried surface area of CEP250 contributed by FKBP12 (CEP250 [3]; [7]): 663 Å^2
buried surface area of CEP250 contributed by the compound (CEP250 [3]; [7]): 232 Å^2 and 241 Å^2
total buried surface area of CEP250 (CEP250 [3]; [7]): 865 Å^2
total buried surface area of the ternary complex (CEP250 [3]; [7]): 1759 Å^2
binding interactions between compound and CEP250 that are van der Waals or pi-pi interactions (CEP250 [3]; ternary complex): 100%
ΔG (CEP250 [4]; CEP25011.4 68 μM in syringe): −40.75 kJ*mol −mol−1
ΔH (CEP250 [4]; CEP25011.4 68 μM in syringe): −49.37 kJ*mol −mol−1
−T*ΔS (CEP250 [4]; CEP25011.4 68 μM in syringe): 8.62 kJ*mol −mol−1
Kd (CEP250 [4]; CEP25011.4 68 μM in syringe): 70 nM
ΔG (CEP250 [4]; CEP25029.4 118 μM in syringe): −38.41 kJ*mol −mol−1
ΔH (CEP250 [4]; CEP25029.4 118 μM in syringe): −52.21 kJ*mol −mol−1
−T*ΔS (CEP250 [4]; CEP25029.4 118 μM in syringe): 13.80 kJ*mol −mol−1
Kd (CEP250 [4]; CEP25029.4 118 μM in syringe): 190 nM
Ka (CEP250 [5]; FKBP12/F2 complex to CEP25011.4 (residues 2134-2231)): 571000 M⁻¹ s⁻¹
Ka (CEP250 [5]; FKBP12/F2 complex to CEP25029.2 (residues 1982-2231)): 311000 M⁻¹ s⁻¹
